Data set [1] can be described thus: physchem. The settings on record: aqueous with cosolvent or surfactant or cyclodextrin.
From the text: (§1) Additionally investigated was the solubilization of a homologous series of cinnamic acid derivatives.
Data set [2] in a line: Solubilization of a homologous series of cinnamic acid derivatives in water by solubilizers. The settings on record: aqueous with cosolvent or surfactant or cyclodextrin.
From the text: as §1
Data set [3] can be described thus: physchem. How it is done: The stated products and synergistic mixtures were investigated for their usefulness in pharmaceutical formulations and in particular for solubility improvement for sparingly soluble model substances.
The effect of the stated new solubilizers on the boost to solubility of these active ingredients was investigated and was compared with solubilizers already established for pharmaceutical applications. For this purpose, solution isotherms were recorded, and can be used to ascertain the extent of dissolution mediated by the various solubilizers. The optimum is a sharp increase in drug concentration through the use of small amounts of solubilizer, since increasing concentration may also be accompanied by an increase in the unwanted effects.
The solubilizers investigated were compared with solubilizers already established for pharmaceutical formulations, such as TEGO® SMO 80 V (Polysorbat 80) from Evonik, Solutol® HS 15 from BASF, Ludwigshafen, and Eumulgin® RO 35 PH and Speziol® TPGS Pharma (Tocophersolan) from Cognis, Monheim.

[4] abbreviates: Solubility (MW) with Eumulgin HPS.
[5] abbreviates: Solubility (MW) with Eumulgin L.
[6] abbreviates: Solubility (MW) with Eumulgin O10.
Where [7] appears, read: Solubility (MW) with Eumulgin RO35.
Setting [8] is: Solubility (MW) with Speziol TPGS.
The mark [9] stands for this setting: Solubility (MW) with Tego SMO 80V.
[10] abbreviates: Eumulgin ES solution in water, Solubility (MW) with Eumulgin ES, water, solubilizer Eumulgin ES.
Where [11] appears, read: Eumulgin HPS solution in water, Solubility (MW) with Eumulgin HPS, water, solubilizer Eumulgin HPS.
[12] abbreviates: Eumulgin L solution in water, Solubility (MW) with Eumulgin L, water, solubilizer Eumulgin L.
Where [13] appears, read: Eumulgin O10 solution in water, Solubility (MW) with Eumulgin O10, water, solubilizer Eumulgin O10.
[14] abbreviates: Eumulgin RO35 solution in water, Solubility (MW) with Eumulgin RO35, water, solubilizer Eumulgin RO35.
The mark [15] stands for this setting: Speziol TPGS solution in water, Solubility (MW) with Speziol TPGS, water, solubilizer Speziol TPGS.
Setting [16] is: Tego SMO 80V solution in water, Solubility (MW) with Tego SMO 80V, water, solubilizer Tego SMO 80V.
The mark [17] stands for this setting: aqueous with cosolvent or surfactant or cyclodextrin, Solubility with Eumulgin RO35.
Where [18] appears, read: aqueous with cosolvent or surfactant or cyclodextrin, Solubility with TEGO SMO 80V.
[19] abbreviates: water, Solubility, no solubilizer.

≈ marks a conversion by molar mass, not a printed value.

For the molecule `O=C(C=Cc1ccccc1)OCCc1ccccc1` [Phenethyl cinnamate, phenethyl cinnamate], the solubility is 3.2 mg/mL (≈ 12.7 mM) in the data set “physchem [1]” (Solubility (MW) with Eumulgin ES); 2.7 mg/mL (≈ 10.7 mM) in “physchem [1]” (setting [4]); 2.5 mg/mL (≈ 9.91 mM) in “physchem [1]” (setting [5]); 3.7 mg/mL (≈ 14.7 mM) in the data set “physchem [1]” (setting [6]); 4.9 mg/mL (≈ 19.4 mM) in “physchem [1]” (setting [7]); 2.6 mg/mL (≈ 10.3 mM) in “physchem [1]” (setting [8]). The molecule further yielded a solubility in “physchem [1]” (setting [9]) of 2.5 mg/mL (≈ 9.91 mM).

Turning to `COC(=O)C=Cc1ccccc1` [Methyl cinnamate, methyl cinnamate], the solubility in data set [2] (setting [10]) is 3 mg/mL (≈ 18.5 mM); in data set [2] (setting [11]) it was 11.4 mg/mL (≈ 70.3 mM); in data set [2] (setting [12]), 9.8 mg/mL (≈ 60.4 mM); in data set [2] (setting [13]), 9.1 mg/mL (≈ 56.1 mM); in data set [2] (setting [14]), 21.5 mg/mL (≈ 133 mM); in data set [2] (setting [15]) it was 7.9 mg/mL (≈ 48.7 mM). Besides, in data set [2] (setting [16]), the concentration in solution (solubility) came to 9.6 mg/mL (≈ 59.2 mM).

Regarding `CCOC(=O)C=Cc1ccccc1` [Ethyl cinnamate, ethyl cinnamate], the solubility in “physchem [1]” (setting [4]) is 23.6 mg/mL (≈ 134 mM); in “physchem [1]” (setting [5]), 14.7 mg/mL (≈ 83.4 mM); in the data set “physchem [1]” (setting [6]), 47 mg/mL (≈ 267 mM); in the data set “physchem [1]” (setting [7]), 68 mg/mL (≈ 386 mM); in the data set “physchem [1]” (setting [8]) it was 42.3 mg/mL (≈ 240 mM); in “physchem [1]” (setting [9]), 96.4 mg/mL (≈ 547 mM).

`CC(C)COC(=O)C=Cc1ccccc1` [Isobutyl cinnamate, isobutyl cinnamate]: the solubility was 1.2 mg/mL (≈ 5.87 mM) in data set [2] (setting [10]); 29 mg/mL (≈ 142 mM) in data set [2] (setting [11]); 41 mg/mL (≈ 201 mM) in data set [2] (setting [12]); 65.9 mg/mL (≈ 323 mM) in data set [2] (setting [13]); 54.2 mg/mL (≈ 265 mM) in data set [2] (setting [14]); 23.1 mg/mL (≈ 113 mM) in data set [2] (setting [15]). In addition, the solubility in data set [2] (setting [16]) came out at 110 mg/mL (≈ 539 mM).

Regarding `CC(C)OC(=O)C=Cc1ccccc1` [Isopropyl cinnamate, isopropyl cinnamate], the solubility came out at 3.4 mg/mL (≈ 17.9 mM) in data set [2] (setting [10]); 25.7 mg/mL (≈ 135 mM) in data set [2] (setting [11]); 15.2 mg/mL (≈ 79.9 mM) in data set [2] (setting [12]); 32.6 mg/mL (≈ 171 mM) in data set [2] (setting [13]); 50.9 mg/mL (≈ 268 mM) in data set [2] (setting [14]); 21 mg/mL (≈ 110 mM) in data set [2] (setting [15]). For the same molecule, in data set [2] (setting [16]), the solubility was determined as 52.5 mg/mL (≈ 276 mM).

On to `CC[C@H]1OC(=O)[C@H](C)[C@@H](O[C@H]2C[C@@](C)(OC)[C@@H](O)[C@H](C)O2)[C@H](C)[C@@H](O[C@@H]2O[C@H](C)C[C@H](N(C)C)[C@H]2O)[C@](C)(O)C[C@@H](C)C(=O)[C@H](C)[C@@H](O)[C@]1(C)O` [Erythromycin], for which the solubility in the data set “physchem [3]” (aqueous with cosolvent or surfactant or cyclodextrin, Solubility with Eumulgin HPS) is 1.23 mg/mL; in “physchem [3]” (aqueous with cosolvent or surfactant or cyclodextrin, Solubility with Eumulgin L), 1.07 mg/mL; in the data set “physchem [3]” (setting [17]) it was 1.66 mg/mL; in “physchem [3]” (aqueous with cosolvent or surfactant or cyclodextrin, Solubility with Speziol TPGS), 1.72 mg/mL; in the data set “physchem [3]” (setting [18]), 1.7 mg/mL; in the data set “physchem [3]” (setting [19]), 0.459 mg/mL.

For the molecule `CCC(C)n1ncn(-c2ccc(N3CCN(c4ccc(OCC5COC(Cn6cncn6)(c6ccc(Cl)cc6Cl)O5)cc4)CC3)cc2)c1=O` (centres unmarked) [Itraconazole], in the data set “physchem [3]”, the “Solubility with Eumulgin ES” value was determined as 0.009 mg/mL, the “Solubility with Eumulgin HPS” value was found to be 0.008 mg/m1, the “Solubility with Eumulgin L” value was 0.007 mg/mL and the “Solubility with Speziol TPGS” value is 0.008 mg/mL. Besides, the solubility in the data set “physchem [3]” (setting [17]) stood at 0.011 mg/mL. Besides, the solubility in the data set “physchem [3]” (setting [18]) worked out at 0.015 mg/mL. The solubility in “physchem [3]” (setting [19]) amounted to 0.001 mg/mL.

One may read the solubility as the concentration that dissolves in the medium under given conditions.

The values above are taken from patent publication US20110281810A1, “Composition” (Cognis IP Management GmbH, priority 2010, published 2011).
